Consider one compound from publication PMC5104769, “Concentration-Dependent Dual Mode of Zn Action at Serotonin 5-HT1A Receptors: In Vitro and In Vivo Studies” (Molecular neurobiology, 2015).

The nature of one assay: Body temperature in mice. The settings on record: Zn 2 and 5 mg/kg i.p., 30 and 60 min after administration. Type of assay: in vivo, mouse. The protocol:
The experiments were performed on male Albino Swiss mice (23-25 g) and Sprague Dawley rats (200-250 g) from Charles River, Germany as well as […]-flx-YFP mice from Jackson Labs, Bangor ME and the Hen lab, respectively. The animals were kept under standard laboratory conditions with respect to lighting (light phase 7:00-19:00) and temperature (19-21 °C). Food and water were freely available. Each experimental group consisted of eight to ten animals. All of the animals were experimentally naive and were used only once in each test. The experiments were performed during the light period (9:00-14:00 h). All of the procedures were conducted according to the guidelines of the National Institutes of Health Animal Care and Use Committee and were approved by the Ethics Committees of the Institute of Pharmacology, Polish Academy of Sciences in Krakow and the Animal Care Committee, University of Ottawa. […] Controls were treated with the appropriate diluent, which was indicated as VEH on the graphs and in the tables. […] The results were expressed as a change in body temperature with respect to the basal body temperature, which was measured at the beginning of the experiments.

The next assay relates to Sprague Dawley rats. The assay can be described thus: Lower lip retraction (LLR) in rats. The conditions noted are these: for Mean LLR score (A) VEH: max score 3/rat. It is filed as in vivo, rat. The procedure:
The experiments were performed on male Albino Swiss mice (23-25 g) and Sprague Dawley rats (200-250 g) from Charles River, Germany as well as […]-flx-YFP mice from Jackson Labs, Bangor ME and the Hen lab, respectively. The animals were kept under standard laboratory conditions with respect to lighting (light phase 7:00-19:00) and temperature (19-21 °C). Food and water were freely available. Each experimental group consisted of eight to ten animals. All of the animals were experimentally naive and were used only once in each test. The experiments were performed during the light period (9:00-14:00 h). All of the procedures were conducted according to the guidelines of the National Institutes of Health Animal Care and Use Committee and were approved by the Ethics Committees of the Institute of Pharmacology, Polish Academy of Sciences in Krakow and the Animal Care Committee, University of Ottawa. […] Controls were treated with the appropriate diluent, which was indicated as VEH on the graphs and in the tables. LLR was assessed according to the method described by Berendsen et al., [20]. The rats were individually placed in cages (30×25×25 cm) and were scored three times, 15, 30 and 45 min after the administration of Zn as follows: 0=lower incisors not visible, 0.5=partly visible and 1=completely visible. Zn was administered at doses of 2 and 5 mg Zn/kg (given as Zn hydroaspartate, Farmapol, Poland). The maximum total score was 3/rat. In addition, the effects of Zn and WAY-100635 (0.1 mg/kg; […] Sigma) were tested.

Another assay deals with 5-HT3 receptor. On the set-up: method as in PMID 7620711. The conditions noted are these: electrophysiology, cited from earlier work.
The target in assay [1] is T1, human 5-HT1AR stably expressed in HEK293 cells (Homo sapiens, UniProt P08908).
T1 construct: The full-length human 5HTR1A complementary DNA (cDNA); membranes prepared from the cells
T1 sequence (P08908 1-422): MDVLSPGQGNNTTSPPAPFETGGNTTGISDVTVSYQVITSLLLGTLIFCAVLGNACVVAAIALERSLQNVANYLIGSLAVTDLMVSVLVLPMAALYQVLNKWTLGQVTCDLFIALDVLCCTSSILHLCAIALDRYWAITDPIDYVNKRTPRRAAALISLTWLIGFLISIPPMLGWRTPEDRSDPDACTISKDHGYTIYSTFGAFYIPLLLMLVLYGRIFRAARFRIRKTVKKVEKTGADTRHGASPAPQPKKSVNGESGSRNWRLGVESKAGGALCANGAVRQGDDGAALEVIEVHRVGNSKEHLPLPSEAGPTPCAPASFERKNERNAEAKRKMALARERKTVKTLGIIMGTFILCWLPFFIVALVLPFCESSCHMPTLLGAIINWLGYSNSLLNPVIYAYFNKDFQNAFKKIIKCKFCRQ
The assay can be described thus: Saturation binding of [3H]-8-OH-DPAT in the absence and presence of Zn. The conditions noted are these: Zn vs [3H]-8-OH-DPAT, nonlinear regression of saturation data, equation 1. The protocol:
The full-length human 5HTR1A complementary DNA (cDNA), which was cloned into the mammalian expression vector pcDNA3.1(+), was obtained from the Missouri S&T cDNA Resource Center (www.cdna.org). The receptor cDNA was stably transfected into human embryonic kidney cells (HEK293, ATCC) with the use of Lipofectamine 2000 (Invitrogen).
Cell pellets were thawed and homogenized in 20 volumes of 50 mM Tris–HCl buffer (pH 7.7) containing 0.1 mM EDTA and 10 mM MgCl2, using an Ultra Turrax tissue homogenizer. The pellets were then centrifuged twice at 35,000g for 20 min at 4 °C, with incubation for 15 min at 37 °C in between centrifugations. Membranes were aliquoted in tubes. Membrane protein concentrations were determined using the Pierce™ Coomassie (Bradford) Protein Assay Kit, with bovine serum albumin (BSA) as a standard.
The incubation buffer consisted of 50 mM Tris–HCl (pH 7.7), 10 mM MgCl2, 10 mM pargyline and 0.1 % ascorbic acid. Radioligand binding assays were performed by incubating 30 μg of protein of the membrane suspension in 96-well microtitre plates for 60 min at room temperature with shaking, in a total volume of 200 μl. The binding reactions were stopped by filtration through GF/C Unifilter plates using a harvester (PerkinElmer). The plate filters were dried, and 20 μl of Ultima Gold MV (PerkinElmer) was added. Radioactivity was measured using a MicroBeta TriLux counter (PerkinElmer).
All experiments were performed in triplicate, and the results were obtained from at least three independent experiments. The data are expressed as the mean±S.D. (standard deviation). The experimental data were analysed using GraphPad Prism 5.1 for Windows (GraphPad Software, San Diego California USA, www.graphpad.com).

For the compound `[Zn+2]` [Zn, Zinc], in “Body temperature in mice”, the “change in body temperature” value is “significantly and dose-dependently decreased body temperature”. Further, the “Mean LLR score (A) VEH” value in the assay with Sprague Dawley rats (Zn 2 mg Zn/kg i.p. alone) and with Sprague Dawley rats (Zn 5 mg Zn/kg i.p. alone) was 0.0±0.0 in each case. For the same compound, the figures for the “Mean LLR score (B) 8-OH-DPAT 1 mg/kg” value with Sprague Dawley rats (Zn 2 mg/kg 45 min before 8-OH-DPAT 1 mg/kg) and in the assay on Sprague Dawley rats (Zn 5 mg/kg 45 min before 8-OH-DPAT 1 mg/kg) were 1.17±0.98 and 0.46±0.75, respectively. The “effect on LLR induced by 8-OH-DPAT (in words)” value in the assay on Sprague Dawley rats (Zn 2 and 5 mg/kg or WAY-100635 0.1 mg/kg before 8-OH-DPAT 1 mg/kg) is recorded as “blocked the LLR induced by 8-OH-DPAT”. The “induction of LLR (in words)” value with Sprague Dawley rats (given alone: 8-OH-DPAT 1 mg/kg, Zn 2 and 5 mg/kg, WAY-100635 0.1 mg/kg) is reported as “did not evoke LLR”. For the same compound, the “Zn concentrations that depressed the 5-HT-induced response” value with 5-HT3 receptor (high concentrations) is 30 to 200 µM. Moreover, in the assay on 5-HT3 receptor (low concentrations), the “Zn concentrations that enhanced the 5-HT-induced response” value was 0.3 to 10 µM. Also, the “cooperativity factor α” value in assay [1] was found to be 0.37.
